Measured values taken from patent publication US8598314B2 (priority 2007, dated 2013).
Read-outs that look alike come from different tables or passages of the source. *1 amine or outer side, *2 acyl side, *3 side chain or, on linkers, in order; H or OH if unused. Where no end group is shown, it is not given here. Side-chain parts run from the residue outwards. [ ]: non-standard residue; d: D form. The star is where a group is joined. γGlu = O=C(O)[C@H](CCC(=O)[*:2])N[*:1]; Pyrrolidine(2S-CN) = N#C[C@@H]1CCCN1*; NMeY = CN[C@@H](Cc1ccc(O)cc1)C(=O)O; AEEA = NCCOCCOCC(=O)O

What was measured:
ACE from rabbit lung = molecular target: T1, ACE from rabbit lung (Oryctolagus cuniculus, UniProt P12822); test: ACE inhibition assay; format: biochemical
T1 construct: ACE from rabbit lung; purchased Sigma Chemical Co; host or cells: rabbit lung tissue
T1 sequence (P12822 34-1310): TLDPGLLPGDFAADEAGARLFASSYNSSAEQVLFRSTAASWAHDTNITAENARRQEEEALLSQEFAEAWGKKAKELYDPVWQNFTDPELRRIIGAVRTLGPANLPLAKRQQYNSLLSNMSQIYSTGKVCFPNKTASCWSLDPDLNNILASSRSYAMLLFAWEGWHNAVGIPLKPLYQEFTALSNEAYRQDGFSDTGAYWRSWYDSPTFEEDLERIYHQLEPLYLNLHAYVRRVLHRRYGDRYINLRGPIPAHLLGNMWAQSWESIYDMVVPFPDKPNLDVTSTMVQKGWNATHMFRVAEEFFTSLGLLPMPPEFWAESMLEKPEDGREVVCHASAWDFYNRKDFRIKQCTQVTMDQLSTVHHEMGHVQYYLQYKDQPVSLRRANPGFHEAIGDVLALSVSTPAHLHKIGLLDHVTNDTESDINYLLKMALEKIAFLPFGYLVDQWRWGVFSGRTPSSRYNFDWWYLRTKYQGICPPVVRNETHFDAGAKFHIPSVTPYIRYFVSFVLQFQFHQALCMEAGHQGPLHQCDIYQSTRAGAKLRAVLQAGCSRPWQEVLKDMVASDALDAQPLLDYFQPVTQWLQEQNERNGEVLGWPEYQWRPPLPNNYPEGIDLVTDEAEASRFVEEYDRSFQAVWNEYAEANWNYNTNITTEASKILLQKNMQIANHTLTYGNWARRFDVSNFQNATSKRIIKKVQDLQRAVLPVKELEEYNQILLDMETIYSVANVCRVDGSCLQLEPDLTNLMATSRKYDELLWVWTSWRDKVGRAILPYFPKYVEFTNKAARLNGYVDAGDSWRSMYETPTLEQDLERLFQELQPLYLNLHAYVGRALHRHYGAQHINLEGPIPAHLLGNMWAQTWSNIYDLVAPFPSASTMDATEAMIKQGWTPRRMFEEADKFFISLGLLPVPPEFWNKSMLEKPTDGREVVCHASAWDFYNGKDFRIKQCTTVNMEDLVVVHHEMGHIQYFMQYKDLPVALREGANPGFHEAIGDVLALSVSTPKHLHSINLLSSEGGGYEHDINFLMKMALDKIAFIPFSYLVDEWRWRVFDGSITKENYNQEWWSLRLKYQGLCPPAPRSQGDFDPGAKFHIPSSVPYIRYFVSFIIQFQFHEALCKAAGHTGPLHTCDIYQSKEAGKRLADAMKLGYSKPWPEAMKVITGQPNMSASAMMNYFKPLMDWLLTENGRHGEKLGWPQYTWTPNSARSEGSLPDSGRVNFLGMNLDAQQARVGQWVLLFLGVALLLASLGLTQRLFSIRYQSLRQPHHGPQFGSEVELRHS
Procedure: Peptide-ACE peptidase inhibitor conjugate compounds were assessed in an ACE inhibition assay using purified ACE enzyme and chromogenic substrates. An ACE stock solution was prepared by dissolving 0.1 unit of enzyme (ACE from rabbit lung, Sigma Chemical Co., St. Louis, Mo.) in 0.640 mL of HEPES buffer (0.1 M, pH=8). A 2 mM stock solution of substrate (N-benzyloxycarbonyl-Phe-His-Leu-OH) dissolved in methanol. The ACE inhibitor compounds were dissolved in phosphate buffer (0.1 M, pH=8) at concentrations of 0.0, 1, 10, 20, 60 and 100 μM. For the inhibition assay, six 2 mL microcentrifuge tubes were prepared containing 1.45 mL of phosphate buffer pH=8, 0.05 mL of 10% NaCl and 0.015 mL of substrate solution. To each microcentrifuge tube was added 0.015 mL of one of the ACE inhibitor compound's stock solutions. The solutions were heated at 37° C. for about 5 minutes. The reaction was started by the addition of 5 μL of the ACE stock solution to each tube mixture (30 seconds in between). The reaction mixtures were incubated at 37° C. After 5 min, 10 min, 30 min and 60 min., aliquots of 100 μL were taken from each tube (each sample was taken in intervals of 30 seconds). Tubes containing the 100 μL sample were floated in a boiling water bath for 5 min. and then cooled. The reaction samples were then treated with 20 μL of 2M NaOH and 20 μL of 0.1% phthaldialdehyde solution. The tubes were shaken for 4 minutes and 10 μL of 6 M HCl were added. […] Initial rates were determined from linear portions of product release curves. Starting substrate concentration in all assays was 20 μM. Apparent binding constants (Kd^app or Ki^app) of inhibitors to ACE were determined by fitting inhibition curves (initial rate vs. inhibitor concentration) to equation:
[formula] where v0 is reaction rate in the absence of inhibitor and [I]-inhibitor concentration. Fits were done by least-squares method using KaleidaGraph 3.6 (Synergy Software, Reading Pa.).

plasma carboxypeptidase = test: Carboxypeptidase activity assay, PYY(3-36) in human plasma; format: biochemical; conditions: for inhibition of plasma carboxypeptidase activity (in words): protease inhibitor at a final concentration of 1 mM; for inhibition of the formation of PYY(3-35) (in words): 0.5 mM in human plasma, FIGS. 10-12
Procedure: Carboxypeptidase activity assays were performed in the presence of various agents to test for carboxypeptidase inhibitor activity of the agents.
The remainder of the sample was placed in an incubator at 37° C., mixing at 600 RPM for sixty minutes. At 10 minute intervals, a 100 μl sample of the mixture was removed and transferred to a separate microcentrifuge tubes. Following the transfer of the 100 μL sample at the zero time point and each 10 minute interval, each collected sample was extracted by slow addition of 100 μl cold 0.2% formic acid:acetonitrile, while mixing. After addition of the acetonitrile solution, the sample was vortex mixed at high speed for 15 seconds. The extracted samples were stored at −20° C. for at least 20 minutes and then centrifuged at 11,000×g for 10 minutes at 5° C. The supernatant of each sample was transferred to a new microcentrifuge tube, centrifuged again, and finally transferred for LC/MS analysis. The MS analysis was a Q1 single ion monitoring method that detects the most intense ion of the parent molecule and the peptide fragment of interest.

NIH/Swiss mice = test: Oral glucose tolerance test (OGTT), glucose lowering; format: in vivo; conditions: 30 nM/kg, blood glucose
Procedure: . Test compounds were injected IP (t=0 min) immediately following baseline measurements of 2 hour fasted NIH/Swiss mice. Blood samples were taken at 60, 120, and 180 minutes after injection. In some assays, samples were also taken at 240 minutes after the injection. Blood glucose was measured with a One-Touch® Ultra® glucose meter (LifeScan, Inc., Milpitas, Calif.). […].
The tests were performed as described in Example 5.

Compound: CC[C@H](C)[C@H](NC(=O)[C@H](Cc1ccccc1)NC(=O)[C@H](CC(C)C)NC(=O)[C@H](CCCNC(=N)N)NC(=O)[C@@H](NC(=O)[C@H](C)NC(=O)[C@H](CCC(=O)O)NC(=O)[C@H](CCC(=O)O)NC(=O)[C@H](CCC(=O)O)NC(=O)[C@H](CC(C)C)NC(=O)[C@H](CCC(N)=O)NC(=O)[C@H](CCCCN)NC(=O)[C@H](CO)NC(=O)[C@H](CC(C)C)NC(=O)[C@H](CC(=O)O)NC(=O)[C@H](CO)NC(=O)[C@@H](NC(=O)[C@H](Cc1ccccc1)NC(=O)[C@@H](NC(=O)CNC(=O)[C@H](CCC(=O)O)NC(=O)CNC(=O)[C@@H](N)Cc1c[nH]cn1)[C@@H](C)O)[C@@H](C)O)C(C)C)C(=O)N[C@@H](CCC(=O)O)C(=O)N[C@@H](Cc1ccccc1)C(=O)N[C@@H](CC(C)C)C(=O)N[C@@H](CCCCN)C(=O)N[C@@H](CC(N)=O)C(=O)NCC(=O)NCC(=O)NCCCC[C@H](NC(CCc1ccccc1)C(=O)O)C(=O)N1CCCC1C(=O)O (stereo partly drawn) [3633/42/1, [^14Leu,^25Phe]Exendin-4(1-28)-Gly-Gly-CONH-Lisinopril diacid]
- IC50 (ACE from rabbit lung): 1500 nM

Compound: NCCc1ccc(S(=O)(=O)F)cc1 [AEBSF, 4-(2-aminoethyl)-bezenesulfonylfluoride, reference compound]
- inhibition of plasma carboxypeptidase activity (in words) (plasma carboxypeptidase): inhibited

Compound: CC[C@H](C)[C@H](NC(=O)[C@H](CC(C)C)NC(=O)[C@H](Cc1c[nH]c2ccccc12)NC(=O)[C@H](CC(=O)O)NC(=O)[C@@H](NC(=O)[C@H](Cc1ccccc1)NC(=O)[C@H](CCC(=O)O)NC(=O)[C@H](CCCCN)NC(=O)[C@H](C)NC(=O)[C@H](C)NC(=O)[C@H](CCCCN)NC(=O)[C@H](CCC(=O)O)NC(=O)[C@H](CC(=O)O)NC(=O)[C@H](CC(C)C)NC(=O)[C@H](CCC(N)=O)NC(=O)[C@H](CCC(N)=O)NC(=O)[C@@H](NC(=O)[C@@H](NC(=O)[C@H](CC(=O)O)NC(=O)[C@H](CO)NC(=O)[C@@H](NC(=O)[C@H](Cc1ccccc1)NC(=O)[C@@H](NC(=O)CNC(=O)[C@H](CCC(=O)O)NC(=O)[C@H](C)NC(=O)[C@@H](N)Cc1c[nH]cn1)[C@@H](C)O)[C@@H](C)O)C(C)C)[C@@H](C)O)[C@@H](C)CC)C(=O)N[C@@H](CC(N)=O)C(=O)NCC(=O)NCC(=O)N1CCC[C@H]1C(=O)N[C@@H](CO)C(=O)N[C@@H](CCCCN)C(=O)N[C@@H](CCC(=O)O)C(=O)N[C@H](C(=O)N[C@H](C(=O)N[C@@H](CO)C(=O)NCCOCCOCCOCC(=O)NCCOCCOCC(=O)NCCCC[C@H](NC(CCc1ccccc1)C(=O)O)C(=O)N1CCC[C@H]1C(=O)O)[C@@H](C)CC)[C@@H](C)CC (stereo partly drawn) [Compound 5713]
- IC50 (ACE from rabbit lung; substrate N-benzyloxycarbonyl-Phe-His-Leu-OH 20 μM, read-out: ACE inhibition IC50): 700 nM

Compound: O=C(O)CN(CCN(CC(=O)O)CC(=O)O)CC(=O)O [EDTA, reference compound]
- inhibition of plasma carboxypeptidase activity (in words) (plasma carboxypeptidase): not

Compound: NCCCC[C@H](N[C@@H](CCc1ccccc1)C(=O)O)C(=O)N1CCC[C@H]1C(=O)O [Lisinopril, reference compound]
- IC50 (ACE from rabbit lung; commercial lisinopril, read-out: ACE inhibition IC50): 1.3 nM
- IC50 (ACE from rabbit lung; synthesized lisinopril, read-out: ACE inhibition IC50): 2.8 nM

Compound: CNC(Cc1ccc(O)cc1)C(N)=O (stereo not drawn) [N-methyl-Tyr-NH2]
- inhibition of the formation of PYY(3-35) (in words) (plasma carboxypeptidase): did not inhibit

Compound: CC(C)C[C@H](NP(=O)(O)O[C@@H]1O[C@@H](C)[C@H](O)[C@@H](O)[C@H]1O)C(=O)N[C@@H](Cc1c[nH]c2ccccc12)C(=O)O [phosphoramidon, reference compound]
- inhibition of plasma carboxypeptidase activity (in words) (plasma carboxypeptidase): not

Compound: GIP(1-30)-Ado-Ado-Lys-N-ε-(2-(S)-cyano pyrrolidyl)
- OGTT (30 nM/kg) % maximal decrease (NIH/Swiss mice): −17%

Compound: GIP(1-30)-Ado-Lys-N-ε-(2-(S)-cyano pyrrolidyl) (YAEGTFISDYSIAMDKIHQQDFVNWLLAQK)
- OGTT (30 nM/kg) % maximal decrease (NIH/Swiss mice): −18%

Compound: GIP(1-30)-exendin-4(31-39)-Ado-Ado-Lys-N-ε-(2-(S)-cyano pyrrolidyl)
- OGTT (30 nM/kg) % maximal decrease (NIH/Swiss mice): −22%

Compound: GIP(1-30)-exendin-4(31-39)-Ado-Lys-N-ε-(2-(S)-cyano pyrrolidyl)
- OGTT (30 nM/kg) % maximal decrease (NIH/Swiss mice): −18%

Compound: Lys^30 N-ε-(Ado-(γ-L-Glu-2-(S)-cyano pyrrolidyl)) GIP(1-30)-exendin-4(31-39)
- OGTT (30 nM/kg) % maximal decrease (NIH/Swiss mice): −11%

Compound: [Lys^30 N-ε-(Ado-(γ-L-Glu-2-(S)-cyano pyrrolidyl))]GIP(1-30) (YAEGTFISDYSIAMDKIHQQDFVNWLLAQK([AEEA-γGlu-Pyrrolidine(2S-CN)]))
- OGTT (30 nM/kg) % maximal decrease (NIH/Swiss mice): −10%

Compound: [^14Leu] GIP(1-30)-Ado-Lys-N-ε-(2-(S)-cyano pyrrolidyl) (YAEGTFISDYSIALDKIHQQDFVNWLLAQK)
- OGTT (30 nM/kg) % maximal decrease (NIH/Swiss mice): −9%

Compound: [^16Lys (N-ε-(Aun-Aun-(γ-L-Glu-2-(S)-cyano pyrrolidyl)))] GIP(1-30)-exendin(31-39)
- OGTT (30 nM/kg) % maximal decrease (NIH/Swiss mice): −3%

Compound: ^36N-methyl-Tyr-amide-PYY(22-36) (ASLRHYLNLVTRQR[NMeY]-NH2; N-terminus assumed; SMILES CC(C)C[C@H](NC(=O)[C@H](CO)NC(=O)[C@H](C)N)C(=O)N[C@@H](CCCNC(=N)N)C(=O)N[C@@H](Cc1c[nH]cn1)C(=O)N[C@@H](Cc1ccc(O)cc1)C(=O)N[C@@H](CC(C)C)C(=O)N[C@@H](CC(N)=O)C(=O)N[C@@H](CC(C)C)C(=O)N[C@H](C(=O)N[C@H](C(=O)N[C@@H](CCCNC(=N)N)C(=O)N[C@@H](CCC(N)=O)C(=O)N[C@@H](CCCNC(=N)N)C(=O)N(C)[C@@H](Cc1ccc(O)cc1)C(N)=O)[C@@H](C)O)C(C)C) [N-terminal truncation of 36N-methyl-Tyr-amide-PYY(3-36)]
- inhibition of the formation of PYY(3-35) (in words) (plasma carboxypeptidase): measurable but lower activity

Compound: ^36N-methyl-Tyr-amide-PYY(34-36) (Gln-Arg-[NMeY]-NH2; N-terminus assumed; SMILES CN(C(=O)[C@H](CCCNC(=N)N)NC(=O)[C@@H](N)CCC(N)=O)[C@@H](Cc1ccc(O)cc1)C(N)=O) [N-terminal truncation of 36N-methyl-Tyr-amide-PYY(3-36)]
- inhibition of the formation of PYY(3-35) (in words) (plasma carboxypeptidase): did not inhibit
